# Source: ChEMBL document CHEMBL1201862, “PubChem BioAssay data set” (2004)
# Activity calls are given as the source filed them. Cut-off read from the data, not from the text of the source: actives have a measured IC50 and inactives only a lower limit.
# Target: Envelope glycoprotein gp160 (Human immunodeficiency virus 1, UniProt Q6QLK5)
# Assay: cell-free HIV fusion peptide-binding blockers – biochemical, uHTS, fluorescence dequenching, […] (AID 1986)
# Sequence of Envelope glycoprotein gp160 (Q6QLK5 whole entry, the tested form may be a part): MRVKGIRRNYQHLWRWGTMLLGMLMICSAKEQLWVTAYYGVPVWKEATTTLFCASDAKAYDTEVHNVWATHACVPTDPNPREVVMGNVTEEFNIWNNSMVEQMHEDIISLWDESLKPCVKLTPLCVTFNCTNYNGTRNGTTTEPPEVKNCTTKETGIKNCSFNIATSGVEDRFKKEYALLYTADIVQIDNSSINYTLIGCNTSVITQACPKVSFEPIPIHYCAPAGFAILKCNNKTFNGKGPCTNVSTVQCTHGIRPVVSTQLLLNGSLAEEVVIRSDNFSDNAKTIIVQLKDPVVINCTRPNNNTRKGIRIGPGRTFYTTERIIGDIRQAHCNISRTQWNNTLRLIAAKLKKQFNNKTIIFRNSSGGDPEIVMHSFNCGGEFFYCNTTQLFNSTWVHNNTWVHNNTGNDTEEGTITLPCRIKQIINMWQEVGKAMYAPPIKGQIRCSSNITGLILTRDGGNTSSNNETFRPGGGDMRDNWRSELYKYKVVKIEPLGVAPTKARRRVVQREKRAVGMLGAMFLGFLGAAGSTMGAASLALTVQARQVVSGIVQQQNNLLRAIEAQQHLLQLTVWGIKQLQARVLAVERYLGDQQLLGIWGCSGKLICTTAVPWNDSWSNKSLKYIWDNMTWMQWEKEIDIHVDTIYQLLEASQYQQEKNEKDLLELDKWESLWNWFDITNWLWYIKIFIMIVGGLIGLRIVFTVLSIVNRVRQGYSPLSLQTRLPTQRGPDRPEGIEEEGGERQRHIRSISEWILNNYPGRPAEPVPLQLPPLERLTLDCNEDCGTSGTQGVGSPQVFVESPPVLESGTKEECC
compound,measurement,value
O=C(OCC1OC(n2ncc(=O)[nH]c2=O)C(OC(=O)c2ccccc2)C1OC(=O)c1ccccc1)c1ccccc1 (stereo unspecified),IC50,23.8 µM (active)
